Laboratory results as given in patent US10294202B2, “Pyrrolidinones as herbicides” (FMC Corporation, priority 2013, dated 2019).

Assays:
morningglory = experiment: Test A pre-/postemergence herbicide test; type: in vivo, Ipomoea spp.
Summary of the method: (§1)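 Greenhouse pot test with pre- and postemergence application of surfactant-containing solvent formulations. Postemergence plants were 2–10 cm, one- to two-leaf stage. Response scored visually after ~10 days, 0 (no effect) to 100 (complete control).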

barnyardgrass [1] = experiment: Test C pre-/postemergence herbicide test; type: in vivo, Echinochloa crus-galli
Summary of the method: (§2)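 Greenhouse pots; formulation = non-phytotoxic solvent mix + surfactant. PRE onto seeds in loam:sand; POST at 1–4 leaves (2–18 cm) in peat moss/vermiculite medium. Read-out: visual % control vs untreated, day 13–15.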

pigweed [2] = experiment: Test A pre-/postemergence herbicide test; type: in vivo, Amaranthus retroflexus
Summary of the method: as §1

ducksalad = experiment: Test B flooded paddy test; type: in vivo, Heteranthera limosa; settings: Flood, scale of 0 to 100 where 0 is no effect and 100 is complete control
Summary of the method: (§3)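 Plants were grown to the 2-leaf stage, then pots were flooded to 3 cm above the soil and compound was applied directly into the paddy water, with that depth held throughout. After 13 to 15 days in a greenhouse, injury was rated visually against untreated controls on a 0 to 100 scale (100 = complete control).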

sedge, umbrella = experiment: Test C flooded paddy test; type: in vivo, Cyperus difformis; settings: Flood
Summary of the method: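 Plants at the 2-leaf stage in pots flooded to 3 cm were treated by applying compound directly to the paddy water, with depth held throughout. After 13 to 15 days in a greenhouse, response was rated visually against controls on a 0 (no effect) to 100 (complete control) scale.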

pigweed [3] = experiment: Test C pre-/postemergence herbicide test; type: in vivo, Amaranthus retroflexus
Summary of the method: as §2

barnyardgrass [4] = experiment: Test B flooded paddy test; type: in vivo, Echinochloa crus-galli; settings: Flood, scale of 0 to 100 where 0 is no effect and 100 is complete control
Summary of the method: as §3

ryegrass, Italian = experiment: Test A pre-/postemergence herbicide test; type: in vivo, Lolium multiflorum
Summary of the method: as §1

ragweed = experiment: Test A pre-/postemergence herbicide test; type: in vivo, Ambrosia elatior
Summary of the method: as §1

[5] = Postemergence, 125 g ai/ha, 0 to 100 scale, 0 no effect, 100 complete control
[6] = Postemergence, 500 g ai/ha, 0 to 100 scale (0 no effect, 100 complete control)
[7] = Preemergence, 125 g ai/ha, visual rating on 0 to 100 scale (0 no effect, 100 complete control)
[8] = preemergence, 500 g ai/ha, 0 to 100 scale
[9] = Preemergence, 31 g ai/ha, scale 0 to 100, 0 is no effect and 100 is complete control
[10] = Preemergence, 62 g ai/ha, scale 0 to 100
[11] = Preemergence, 125 g ai/ha, scale 0 to 100 (0 no effect, 100 complete control)
[12] = Postemergence, 125 g ai/ha, visual rating on 0 to 100 scale (0 no effect, 100 complete control), approx. 10 days
[13] = Preemergence, 125 g ai/ha, 0 to 100 scale where 0 is no effect and 100 is complete control
[14] = Preemergence, 500 g ai/ha, visual rating on 0 to 100 scale (0 no effect, 100 complete control)
[15] = Postemergence, 31 g ai/ha, scale 0 to 100 (0 no effect, 100 complete control)
[16] = Postemergence, 62 g ai/ha, scale 0 (no effect) to 100 (complete control)
[17] = Postemergence, 125 g ai/ha, scale 0 to 100 (0 no effect, 100 complete control)
[18] = Postemergence, 250 g ai/ha, scale 0 to 100 (0 no effect, 100 complete control)
[19] = Preemergence, 62 g ai/ha, scale 0 to 100 (0 no effect, 100 complete control)
[20] = 31 g ai/ha, scale of 0 to 100 where 0 is no effect and 100 is complete control, 13 to 15 days
[21] = 62 g ai/ha, scale of 0 to 100 where 0 is no effect and 100 is complete control, 13 to 15 days
[22] = 125 g ai/ha, scale of 0 to 100 where 0 is no effect and 100 is complete control, 13 to 15 days
[23] = 250 g ai/ha, scale of 0 to 100 where 0 is no effect and 100 is complete control, 13 to 15 days
[24] = Preemergence, 125 g ai/ha, scale 0 to 100
[25] = Preemergence, 31 g ai/ha, scale 0 to 100

Structure (SMILES)	Barnyardgrass plant response rating (barnyardgrass [1]; [9])	Plant response rating, Barnyardgrass (barnyardgrass [1]; [11])	Plant response rating (scale of 0 to 100; 0 is no effect, 100 is complete control), Barnyardgrass (barnyardgrass [1]; Preemergence, 250 g ai/ha)	Plant response rating, Pigweed (pigweed [2]; [6])	Pigweed plant response rating (pigweed [3]; [9])	Plant response rating, Ryegrass, Italian (ryegrass, Italian; [12])	Plant response rating, Ryegrass, Italian (ryegrass, Italian; [6])	Plant response rating, Ryegrass, Italian (ryegrass, Italian; [13])	Ryegrass, Italian plant response rating (ryegrass, Italian; [14])	Plant response rating, Barnyardgrass (barnyardgrass [1]; [15])	Plant response rating, Barnyardgrass (barnyardgrass [1]; [16])	Barnyardgrass plant response rating (barnyardgrass [1]; [19])	Plant response rating, Pigweed (pigweed [2]; [12])	Plant response rating, Pigweed (pigweed [2]; [13])	Pigweed plant response rating (pigweed [2]; [14])	Plant response rating, Sedge, Umbrella (sedge, umbrella; [22])	Plant response rating, Sedge, Umbrella (sedge, umbrella; [23])	Pigweed plant response rating (pigweed [3]; [19])	Plant response rating, Ragweed (ragweed; [12])	Plant response rating, Ragweed (ragweed; [13])	other results
O=C1NCC(c2ccc(F)c(C(F)(F)F)c2)C1C(=O)Nc1cccc(F)c1F (racemic) [Compound 77]	90	95	95	50	0																Plant response rating, Morningglory (morningglory; [5]): 0; Plant response rating, Morningglory (morningglory; [6]): 30; Morningglory plant response rating (morningglory; [7]): 20; Plant response rating, Morningglory (morningglory; [8]): 60; Plant response rating, Barnyardgrass (barnyardgrass [1]; [10]): 95; Plant response rating, Pigweed (pigweed [2]; [5]): 40; Pigweed plant response rating (pigweed [2]; [7]): 40; Plant response rating, Pigweed (pigweed [2]; [8]): 70; Plant response rating, Ducksalad (ducksalad; 250 g ai/ha): 100; Plant response rating, Sedge, Umbrella (sedge, umbrella; 250 g ai/ha, scale 0 to 100): 0; Plant response rating, Sedge, Umbrella (sedge, umbrella; 500 g ai/ha, scale 0 to 100): 0; Plant response rating, Sedge, Umbrella (sedge, umbrella; 1000 g ai/ha, scale 0 to 100): 20; Plant response rating, Sedge, Umbrella (sedge, umbrella; 2000 g ai/ha, scale 0 to 100): 40; Plant response rating, Pigweed (pigweed [3]; [10]): 60; Plant response rating, Pigweed (pigweed [3]; [11]): 60; Plant response rating (scale of 0 to 100), Pigweed (pigweed [3]; Preemergence, 250 g ai/ha): 85; Plant response rating, Barnyardgrass (barnyardgrass [4]; 250 g ai/ha): 20
CN1CC(c2ccc(F)c(F)c2)C(C(=O)Nc2cccc(F)c2F)C1=O (centres unmarked) [Compound 303]	90	95	98	60	35	40	60	30	40	10	60	95	40	20	50	0	0	55	20	0	Plant response rating, Barnyardgrass (barnyardgrass [1]; [17]): 70; Plant response rating, Barnyardgrass (barnyardgrass [1]; [18]): 70; Plant response rating, Ducksalad (ducksalad; 500 g ai/ha): 100; Plant response rating, Sedge, Umbrella (sedge, umbrella; [20]): 0; Plant response rating, Sedge, Umbrella (sedge, umbrella; [21]): 0; Plant response rating, Pigweed (pigweed [3]; [15]): 0; Plant response rating, Pigweed (pigweed [3]; [16]): 0; Plant response rating, Pigweed (pigweed [3]; [17]): 10; Plant response rating, Pigweed (pigweed [3]; [18]): 25; Plant response rating, Pigweed (pigweed [3]; [11]): 65; Plant response rating (scale of 0 to 100), Pigweed (pigweed [3]; Preemergence, 250 g ai/ha): 80; Plant response rating, Ragweed (ragweed; [6]): 40; Plant response rating, Barnyardgrass (barnyardgrass [4]; 500 g ai/ha): 80
CC(C)c1cccc(C2CNC(=O)C2C(=O)Nc2ccccc2F)c1 (centres unmarked) [Compound 318]	80	95	95	20	0	20	40	20	60			95	20	0	20	0	0	20	0	20	Plant response rating, Ducksalad (ducksalad; 500 g ai/ha): 100; Plant response rating, Sedge, Umbrella (sedge, umbrella; [20]): 0; Plant response rating, Sedge, Umbrella (sedge, umbrella; [21]): 0; Plant response rating, Pigweed (pigweed [3]; [24]): 20; Plant response rating, Ragweed (ragweed; [6]): 30; Ragweed plant response rating (ragweed; [14]): 40; Plant response rating, Barnyardgrass (barnyardgrass [4]; 500 g ai/ha): 75
O=C1NCC(c2cccc(OC(F)F)c2)C1C(=O)Nc1ccccc1F (centres unmarked) [Compound 323]	80	98	98	30	35	30	30	20	30	0	10	85	20	20	30	0	0	35	0	20	Plant response rating, Barnyardgrass (barnyardgrass [1]; [17]): 35; Plant response rating, Barnyardgrass (barnyardgrass [1]; [18]): 70; Plant response rating, Ducksalad (ducksalad; 500 g ai/ha): 100; Plant response rating, Sedge, Umbrella (sedge, umbrella; [20]): 0; Plant response rating, Sedge, Umbrella (sedge, umbrella; [21]): 0; Plant response rating, Pigweed (pigweed [3]; [15]): 0; Plant response rating, Pigweed (pigweed [3]; [16]): 5; Plant response rating, Pigweed (pigweed [3]; [17]): 25; Plant response rating, Pigweed (pigweed [3]; [18]): 25; Plant response rating, Pigweed (pigweed [3]; [24]): 55; Plant response rating, Ragweed (ragweed; [6]): 20; Ragweed plant response rating (ragweed; [14]): 80; Plant response rating, Barnyardgrass (barnyardgrass [4]; 500 g ai/ha): 80
O=C1NCC(c2ccc(F)c(F)c2)C1C(=O)Nc1ccc(F)c(F)c1F (centres unmarked) [Compound 346]		95	98			20		0	30	0	0	70	0	20	30	0	0	55	0	0	Plant response rating, Barnyardgrass (barnyardgrass [1]; [17]): 30; Plant response rating, Barnyardgrass (barnyardgrass [1]; [18]): 60; Plant response rating, Barnyardgrass (barnyardgrass [1]; [25]): 50; Plant response rating, Ducksalad (ducksalad; 1000 g ai/ha): 100; Plant response rating, Sedge, Umbrella (sedge, umbrella; 500 g ai/ha, scale 0 to 100): 0; Plant response rating, Sedge, Umbrella (sedge, umbrella; 1000 g ai/ha, scale 0 to 100): 0; Plant response rating, Pigweed (pigweed [3]; [15]): 5; Plant response rating, Pigweed (pigweed [3]; [16]): 5; Plant response rating, Pigweed (pigweed [3]; [17]): 20; Plant response rating, Pigweed (pigweed [3]; [18]): 40; Plant response rating, Pigweed (pigweed [3]; [24]): 60; Plant response rating, Pigweed (pigweed [3]; [25]): 40; Ragweed plant response rating (ragweed; [14]): 0; Plant response rating, Barnyardgrass (barnyardgrass [4]; 1000 g ai/ha): 85
